According to patent US20230085307A1, “PYRIDAZINONE COMPOUND AND HERBICIDE” (NISSAN CHEMICAL CORPORATION, priority 2019, published 2023):

Tests used:
barnyard grass [1] = assay: Test Example 3: herbicidal effect by foliage application, Wagner pot (Table 18, symbol H); format: in vivo, barnyard grass (Echinochloa crus-galli); details: amount of applied herbicide 320 g/ha
In short: (§1)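 Plants were sown in alluvial soil held under 0.1–0.5 cm standing water and grown 14 days in a greenhouse at 25–30 °C. An emulsifiable formulation, water-diluted to the set dose, was then sprayed onto the foliage, and effects were scored three weeks later using previously defined criteria.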

Chinese sprangletop = assay: Test Example 3: herbicidal effect by foliage application, Wagner pot (Table 18, symbol D); format: in vivo, chinese sprangletop (Leptochloa chinensis); details: amount of applied herbicide 320 g/ha
In short: as §1

rice flat sedge = assay: Test Example 3: herbicidal effect by foliage application, Wagner pot (Table 18, symbol E); format: in vivo, rice flat sedge (Cyperus iria); details: amount of applied herbicide 320 g/ha
In short: as §1

southern crabgrass [2] = assay: Test Example 4: herbicidal effect by soil treatment (Table 19, symbol F); format: in vivo, southern crabgrass (Digitaria ciliaris); details: amount of applied herbicide 320 g/ha
In short: (§2)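 Herbicidal effect was rated 3 weeks after treatment, using the scoring criteria of an earlier test. The compound, formulated as an emulsion and diluted in water to a set herbicide amount, had been sprayed uniformly on soil over freshly sown seeds. Growth took place in a greenhouse at 25° C. to 30° C.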

green foxtail [3] = assay: Test Example 4: herbicidal effect by soil treatment (Table 19, symbol G); format: in vivo, green foxtail (Setaria viridis); details: amount of applied herbicide 320 g/ha
In short: as §2

barnyard grass [4] = assay: Test Example 4: herbicidal effect by soil treatment (Table 19, symbol H); format: in vivo, barnyard grass (Echinochloa crus-galli); details: amount of applied herbicide 320 g/ha
In short: as §2

wild oat [5] = assay: Test Example 4: herbicidal effect by soil treatment (Table 19, symbol I); format: in vivo, wild oat (Avena fatua); details: amount of applied herbicide 320 g/ha
In short: as §2

blackgrass [6] = assay: Test Example 4: herbicidal effect by soil treatment (Table 19, symbol J); format: in vivo, blackgrass (Alopecurus myosuroides); details: amount of applied herbicide 320 g/ha
In short: as §2

Italian ryegrass [7] = assay: Test Example 4: herbicidal effect by soil treatment (Table 19, symbol K); format: in vivo, Italian ryegrass (Lolium multiflorum); details: amount of applied herbicide 320 g/ha
In short: as §2

windgrass [8] = assay: Test Example 4: herbicidal effect by soil treatment (Table 19, symbol L); format: in vivo, windgrass (Apera spica-venti); details: amount of applied herbicide 320 g/ha
In short: as §2

velvetleaf [9] = assay: Test Example 4: herbicidal effect by soil treatment (Table 19, symbol M); format: in vivo, velvetleaf (Abutilon theophrasti); details: amount of applied herbicide 320 g/ha
In short: as §2

redroot pigweed [10] = assay: Test Example 4: herbicidal effect by soil treatment (Table 19, symbol N); format: in vivo, redroot pigweed (Amaranthus retroflexus); details: amount of applied herbicide 320 g/ha
In short: as §2

lambsquarters [11] = assay: Test Example 4: herbicidal effect by soil treatment (Table 19, symbol O); format: in vivo, lambsquarters (Chenopodium album); details: amount of applied herbicide 320 g/ha
In short: as §2

chickweed [12] = assay: Test Example 4: herbicidal effect by soil treatment (Table 19, symbol P); format: in vivo, common chickweed (Stellaria media); details: amount of applied herbicide 320 g/ha
In short: as §2

false cleavers [13] = assay: Test Example 4: herbicidal effect by soil treatment (Table 19, symbol Q); format: in vivo, false cleavers (Galium spurium); details: amount of applied herbicide 320 g/ha
In short: as §2

persian speedwell [14] = assay: Test Example 4: herbicidal effect by soil treatment (Table 19, symbol R); format: in vivo, Persian speedwell (Veronica persica); details: amount of applied herbicide 320 g/ha
In short: as §2

southern crabgrass [15] = assay: Test Example 5: herbicidal effect by foliage application, plastic box (Table 20, symbol F); format: in vivo, southern crabgrass (Digitaria ciliaris); details: foliage application, 320 g/ha, evaluated three weeks after application
In short: (§3)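 Foliar spray test: emulsion formulation diluted in water to a set application rate, sprayed onto 14-day-old plants raised in diluvial soil at 25° C to 30° C under glass. Both herbicidal effect and crop effect rated visually three weeks later.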

green foxtail [16] = assay: Test Example 5: herbicidal effect by foliage application, plastic box (Table 20, symbol G); format: in vivo, green foxtail (Setaria viridis); details: foliage application, 320 g/ha, evaluated three weeks after application
In short: as §3

barnyard grass [17] = assay: Test Example 5: herbicidal effect by foliage application, plastic box (Table 20, symbol H); format: in vivo, barnyard grass (Echinochloa crus-galli); details: foliage application, 320 g/ha, evaluated three weeks after application
In short: as §3

wild oat [18] = assay: Test Example 5: herbicidal effect by foliage application, plastic box (Table 20, symbol I); format: in vivo, wild oat (Avena fatua); details: foliage application, 320 g/ha, evaluated three weeks after application
In short: as §3

blackgrass [19] = assay: Test Example 5: herbicidal effect by foliage application, plastic box (Table 20, symbol J); format: in vivo, blackgrass (Alopecurus myosuroides); details: foliage application, 320 g/ha, evaluated three weeks after application
In short: as §3

Italian ryegrass [20] = assay: Test Example 5: herbicidal effect by foliage application, plastic box (Table 20, symbol K); format: in vivo, Italian ryegrass (Lolium multiflorum); details: foliage application, 320 g/ha, evaluated three weeks after application
In short: as §3

windgrass [21] = assay: Test Example 5: herbicidal effect by foliage application, plastic box (Table 20, symbol L); format: in vivo, windgrass (Apera spica-venti); details: foliage application, 320 g/ha, evaluated three weeks after application
In short: as §3

velvetleaf [22] = assay: Test Example 5: herbicidal effect by foliage application, plastic box (Table 20, symbol M); format: in vivo, velvetleaf (Abutilon theophrasti); details: foliage application, 320 g/ha, evaluated three weeks after application
In short: as §3

redroot pigweed [23] = assay: Test Example 5: herbicidal effect by foliage application, plastic box (Table 20, symbol N); format: in vivo, redroot pigweed (Amaranthus retroflexus); details: foliage application, 320 g/ha, evaluated three weeks after application
In short: as §3

lambsquarters [24] = assay: Test Example 5: herbicidal effect by foliage application, plastic box (Table 20, symbol O); format: in vivo, lambsquarters (Chenopodium album); details: foliage application, 320 g/ha, evaluated three weeks after application
In short: as §3

chickweed [25] = assay: Test Example 5: herbicidal effect by foliage application, plastic box (Table 20, symbol P); format: in vivo, common chickweed (Stellaria media); details: foliage application, 320 g/ha, evaluated three weeks after application
In short: as §3

false cleavers [26] = assay: Test Example 5: herbicidal effect by foliage application, plastic box (Table 20, symbol Q); format: in vivo, false cleavers (Galium spurium); details: foliage application, 320 g/ha, evaluated three weeks after application
In short: as §3

persian speedwell [27] = assay: Test Example 5: herbicidal effect by foliage application, plastic box (Table 20, symbol R); format: in vivo, Persian speedwell (Veronica persica); details: foliage application, 320 g/ha, evaluated three weeks after application
In short: as §3

SMILES | herbicidal effect on H: barnyard grass (barnyard grass [1]) | herbicidal effect on D: Chinese sprangletop (Chinese sprangletop) | herbicidal effect on E: rice flat sedge (rice flat sedge) | F: southern crabgrass, herbicidal effect rating (southern crabgrass [2]) | G: green foxtail, herbicidal effect rating (green foxtail [3]) | H: barnyard grass, herbicidal effect rating (barnyard grass [4]) | I: wild oat, herbicidal effect rating (wild oat [5]) | J: blackgrass, herbicidal effect rating (blackgrass [6]) | K: Italian ryegrass, herbicidal effect rating (Italian ryegrass [7]) | L: windgrass, herbicidal effect rating (windgrass [8]) | M: velvetleaf, herbicidal effect rating (velvetleaf [9]) | N: redroot pigweed, herbicidal effect rating (redroot pigweed [10]) | O: lambsquarters, herbicidal effect rating (lambsquarters [11]) | P: chickweed, herbicidal effect rating (chickweed [12]) | Q: false cleavers, herbicidal effect rating (false cleavers [13]) | R: persian speedwell, herbicidal effect rating (persian speedwell [14]) | herbicidal effect on F: southern crabgrass (southern crabgrass [15]) | herbicidal effect on G: green foxtail (green foxtail [16]) | herbicidal effect on H: barnyard grass (barnyard grass [17]) | herbicidal effect on I: wild oat (wild oat [18]) | other results
CCCCOc1ccc(-c2sc3ccc(Cl)cc3c2-c2c(OC(=O)CCC)c(C)nn(C)c2=O)cc1 [2-110] | 4 (Herbicidal rate of 70% or more and less than 90%) | 4 (Herbicidal rate of 70% or more and less than 90%) | 4 (Herbicidal rate of 70% or more and less than 90%) | 0 (Herbicidal rate of 5% or less (almost no effect)) | 0 (Herbicidal rate of 5% or less (almost no effect)) | 0 (Herbicidal rate of 5% or less (almost no effect)) | 0 (Herbicidal rate of 5% or less (almost no effect)) | 0 (Herbicidal rate of 5% or less (almost no effect)) | 0 (Herbicidal rate of 5% or less (almost no effect)) | 0 (Herbicidal rate of 5% or less (almost no effect)) | 0 (Herbicidal rate of 5% or less (almost no effect)) | 0 (Herbicidal rate of 5% or less (almost no effect)) | 0 (Herbicidal rate of 5% or less (almost no effect)) | 0 (Herbicidal rate of 5% or less (almost no effect)) | 0 (Herbicidal rate of 5% or less (almost no effect)) | 2 (Herbicidal rate of 20% or more and less than 40%) | 0 (Herbicidal rate of 5% or less (almost no effect)) | 0 (Herbicidal rate of 5% or less (almost no effect)) | 0 (Herbicidal rate of 5% or less (almost no effect)) | 0 (Herbicidal rate of 5% or less (almost no effect)) | herbicidal effect on J: blackgrass (blackgrass [19]): 0 (Herbicidal rate of 5% or less (almost no effect)); herbicidal effect on K: Italian ryegrass (Italian ryegrass [20]): 0 (Herbicidal rate of 5% or less (almost no effect)); herbicidal effect on L: windgrass (windgrass [21]): 0 (Herbicidal rate of 5% or less (almost no effect)); herbicidal effect on M: velvetleaf (velvetleaf [22]): 3 (Herbicidal rate of 40% or more and less than 70%); herbicidal effect on N: redroot pigweed (redroot pigweed [23]): 4 (Herbicidal rate of 70% or more and less than 90%); herbicidal effect on O: lambsquarters (lambsquarters [24]): 3 (Herbicidal rate of 40% or more and less than 70%); herbicidal effect on P: chickweed (chickweed [25]): 2 (Herbicidal rate of 20% or more and less than 40%); herbicidal effect on Q: false cleavers (false cleavers [26]): 3 (Herbicidal rate of 40% or more and less than 70%); herbicidal effect on R: persian speedwell (persian speedwell [27]): 5 (Herbicidal rate of 90% or more (almost completely withered))
Cc1nn(C)c(=O)c(-c2c(-c3ccc4c(c3)OCCO4)sc3ccc(Cl)cc23)c1O [2-127] | 3 (Herbicidal rate of 40% or more and less than 70%) | 0 (Herbicidal rate of 5% or less (almost no effect)) | 5 (Herbicidal rate of 90% or more (almost completely withered)) | 0 (Herbicidal rate of 5% or less (almost no effect)) | 0 (Herbicidal rate of 5% or less (almost no effect)) | 0 (Herbicidal rate of 5% or less (almost no effect)) | 0 (Herbicidal rate of 5% or less (almost no effect)) | 0 (Herbicidal rate of 5% or less (almost no effect)) | 0 (Herbicidal rate of 5% or less (almost no effect)) | 0 (Herbicidal rate of 5% or less (almost no effect)) | 4 (Herbicidal rate of 70% or more and less than 90%) | 0 (Herbicidal rate of 5% or less (almost no effect)) | 4 (Herbicidal rate of 70% or more and less than 90%) | 3 (Herbicidal rate of 40% or more and less than 70%) | 0 (Herbicidal rate of 5% or less (almost no effect)) | 5 (Herbicidal rate of 90% or more (almost completely withered)) | 0 (Herbicidal rate of 5% or less (almost no effect)) | 0 (Herbicidal rate of 5% or less (almost no effect)) | 1 (Herbicidal rate of 5% or more and less than 20%) | 0 (Herbicidal rate of 5% or less (almost no effect)) | herbicidal effect on J: blackgrass (blackgrass [19]): 0 (Herbicidal rate of 5% or less (almost no effect)); herbicidal effect on K: Italian ryegrass (Italian ryegrass [20]): 0 (Herbicidal rate of 5% or less (almost no effect)); herbicidal effect on L: windgrass (windgrass [21]): 0 (Herbicidal rate of 5% or less (almost no effect)); herbicidal effect on M: velvetleaf (velvetleaf [22]): 4 (Herbicidal rate of 70% or more and less than 90%); herbicidal effect on N: redroot pigweed (redroot pigweed [23]): 3 (Herbicidal rate of 40% or more and less than 70%); herbicidal effect on O: lambsquarters (lambsquarters [24]): 3 (Herbicidal rate of 40% or more and less than 70%); herbicidal effect on P: chickweed (chickweed [25]): 5 (Herbicidal rate of 90% or more (almost completely withered)); herbicidal effect on Q: false cleavers (false cleavers [26]): 0 (Herbicidal rate of 5% or less (almost no effect)); herbicidal effect on R: persian speedwell (persian speedwell [27]): 5 (Herbicidal rate of 90% or more (almost completely withered))
